Reference: ChEMBL document CHEMBL4842333, “Catechol-Bearing Polyketide Derivatives from Sparticola junci” (2021)
≈ marks a conversion by molar mass, not a printed value. Calls of active or inactive are those of the source. The rule behind the calls is not given here.

How the values were obtained:
[1] = tested on: Mycolicibacterium smegmatis; test: Antimycobacterial activity against Mycobacterium smegmatis ATCC700084 assessed as inhibition of mycobacterial growth by broth microdilution method; type: functional
A549 = test: Cytotoxicity against human A549 cells assessed as cell growth inhibition incubated for 5 days by MTT assay; type: functional, cell-based; conditions: time 5.0 day
Staphylococcus aureus = test: Antibacterial activity against Staphylococcus aureus DSM346 assessed as inhibition of bacterial growth by broth microdilution method; type: functional
MCF7 = test: Cytotoxicity against human MCF7 cells assessed as cell growth inhibition incubated for 5 days by MTT assay; type: functional, cell-based; conditions: time 5.0 day
KB 3-1 = test: Cytotoxicity against human KB 3-1 cells assessed as cell growth inhibition incubated for 5 days by MTT assay; type: functional, cell-based; conditions: time 5.0 day
PC-3 = test: Cytotoxicity against human PC-3 cells assessed as cell growth inhibition incubated for 5 days by MTT assay; type: functional, cell-based; conditions: time 5.0 day
A-431 = test: Cytotoxicity against human A-431 cells assessed as cell growth inhibition incubated for 5 days by MTT assay; type: functional, cell-based; conditions: time 5.0 day
SK-OV-3 = test: Cytotoxicity against human SK-OV-3 cells assessed as cell growth inhibition incubated for 5 days by MTT assay; type: functional, cell-based; conditions: time 5.0 day
L929 = test: Cytotoxicity against mouse L929 cells assessed as cell growth inhibition incubated for 5 days by MTT assay; type: functional, cell-based; conditions: time 5.0 day
Mucor hiemalis = test: Antifungal activity against Mucor hiemalis DSM2656 assessed as inhibition of fungal growth by broth microdilution method; type: functional, organism-based
Rhodotorula glutinis = test: Antifungal activity against Rhodotorula glutinis DSM1034 assessed as inhibition of fungal growth by broth microdilution method; type: functional, organism-based
[2] = tested on: Schizosaccharomyces pombe; test: Antifungal activity against Schizosaccharomyces pombe DSM70572 assessed as inhibition of fungal growth by broth microdilution method; type: functional, organism-based
Candida albicans = test: Antifungal activity against Candida albicans DSM1665 assessed as inhibition of fungal growth by broth microdilution method; type: functional, organism-based
Wickerhamomyces anomalus = test: Antifungal activity against Pichia anomala DSM6766 assessed as inhibition of fungal growth by broth microdilution method; type: functional, organism-based
Escherichia coli = test: Antibacterial activity against Escherichia coli DSM1116 assessed as inhibition of bacterial growth by broth microdilution method; type: functional
Bacillus subtilis = test: Antibacterial activity against Bacillus subtilis DSM10 assessed as inhibition of bacterial growth by broth microdilution method; type: functional
[3] = tested on: Chromobacterium violaceum; test: Antibacterial activity against Chromobacterium violaceum DSM30191 assessed as inhibition of bacterial growth by broth microdilution method; type: functional
Kocuria rhizophila = test: Antibacterial activity against Kocuria rhizophila DSM1790 assessed as inhibition of bacterial growth by broth microdilution method; type: functional

NC[C@H]1O[C@H](O[C@H]2[C@H](O)[C@@H](O[C@H]3O[C@H](CO)[C@@H](O)[C@H](N)[C@H]3O)[C@H](N)C[C@@H]2N)[C@H](N)[C@@H](O)[C@@H]1O [BEKANAMYCIN]
MIC [1]: 2.1 µg/mL (≈ 4.34 µM)

O=C(O)C[C@H](O)C1(c2cccc(O)c2O)Oc2cccc3cccc(c23)O1
Activity (A549): inactive | MIC (Staphylococcus aureus): 66.6 µg/mL (≈ 181 µM) | Activity (MCF7): inactive | Activity (KB 3-1): inactive | Activity (PC-3): inactive | Activity (A-431): inactive | Activity (SK-OV-3): inactive | Activity (L929): inactive

NYSTATIN
MIC (Mucor hiemalis): 8.3 µg/mL | MIC (Rhodotorula glutinis): 1 µg/mL | MIC [2]: 16.7 µg/mL | MIC (Candida albicans): 2.1 µg/mL | MIC (Wickerhamomyces anomalus): 2.1 µg/mL

COC(=O)C[C@H](O)C1(c2cccc(O)c2O)Oc2cccc3cccc(c23)O1
Activity (A549): inactive | MIC (Staphylococcus aureus): 66.6 µg/mL (≈ 174 µM) | Activity (MCF7): inactive | Activity (KB 3-1): inactive | Activity (PC-3): inactive | Activity (A-431): inactive | Activity (SK-OV-3): inactive | Activity (L929): inactive

CN(C)[C@@H]1C(O)=C(C(N)=O)C(=O)[C@@]2(O)C(O)=C3C(=O)c4c(O)cccc4[C@@](C)(O)[C@H]3[C@H](O)[C@@H]12.Cl [OXYTETRACYCLINE HYDROCHLORIDE]
MIC (Escherichia coli): 1.7 µg/mL | MIC (Bacillus subtilis): 4.2 µg/mL | MIC [3]: 0.4 µg/mL | MIC (Staphylococcus aureus): 0.1 µg/mL | MIC (Kocuria rhizophila): 0.4 µg/mL
